Source: US10676440B2, “Crystalline forms of an NK-1 antagonist” (Helsinn Healthcare SA, priority 2014, dated 2020)

Assay: in vivo
Conditions: male, dog, in vivo, iv, 3 mg/kg, mean AUC(0-102 h)
Experimental: In Example 10, the pharmacokinetics of the compound of Formula I in dogs following single intravenous and oral administration was evaluated and the oral bioavailability of five different salts of the compound of Formula I was compared. The compound of Formula I was administered to dogs as described in Table 12. The doses are expressed in mg of free base.
The experiments were performed in 15 male dogs (bodyweight 11-18 kg) from RCC Ltd., Biotechnology and Animal Breeding Division, Wolferstrasse 4, CH-4414, Fullinsdorf, Switzerland. The animals were housed under standard laboratory conditions throughout the study period.
For the pharmacokinetic studies, 1 mL blood samples were collected from the cephalic vein of the dogs via catheter at 15, 30 min and at 1, 2, 3, 4, 6, 8, 24, 32, 48, 56, 72, 80, 96, and 100 (or 104) hours following oral dosing. After intravenous administration, blood samples were collected at 5, 15, 30 min and 1, 2, 3, 4, 6, 8, 24, 32, 48, 56, 75, 102, 120, 128, 144, 152, 168, 176, 192, and 200 hours. Collection tubes contained EDTA/NaF as anticoagulant and stabilizer. After centrifugation, plasma was removed and stored deep frozen at approximately −20° C. until analysis using a specific LC-MS method.
Aliquots of 40 μL plasma were mixed with 50 μL buffer at pH 5, 50 μL internal standard of Formula I (1 μg/mL in 1-chlorobutane) and 250 μL butylacetate and then shaken for 10 min. After centrifugation, 200 μL of the supernatant were evaporated to dryness at 45° C. under a stream of nitrogen. The residue was reconstituted with 200 μL acetonitrile/1% formic acid in water (30/70, v/v). Aliquots of 30 μL were injected onto the analytical column (Waters, Symmetry C8, 2.1×150 mm, 5 μm).
Separation occurred by gradient elution using a solvent A (acetonitrile) and solvent B (1% formic acid in water). The flow rate was 0.3 mL/min and the gradient elution was: […]
The sample passed to the ion-spray interface of the single quadrupole mass spectrometer. Selected ion monitoring mode (SIM) was used for mass spectrometric detection. Quantification was based on peak area ratios and calibration curve established between 2 and 5000 ng/mL.
To a 100 μL sample aliquot were added 200 μL of a mixture of acetonitrile/ethanol containing the deuterated internal standard, to precipitate plasma proteins. After vortex mixing and centrifugation, aliquots of the supernatants were transferred to 96-deel-well plates and injected for analysis (5 μL). Following enrichment and cleanup on the trapping column, the analyte was eluted and separated by gradient elution on a 2.1*30 mm analytical column (XTerra MS C18). The effluent from the analytical column was passed to the turbo ion spray vie a divert valve.
Calibration standards were prepared in dog plasma. The calibration range was from 10-5000 ng/mL. In each analytical series, a set of calibration standards was worked up and run with the unknowns. Calibration was then performed by computing a weighted (1/X^2) least-squares linear regression line of the measured peak area ratios (Y) (analyte to internal standard) versus the spiked concentrations (X). The drug concentrations of the unknown samples were then calculated from this regression line (UNICHROM). The performance of the analytical procedure during sample analysis was monitored. With each analytical series, quality control (QC) samples in dog plasma, spiked with known amounts of the analyte, were run together with the study samples.
The pharmacokinetic parameters were estimated by non-compartmental analysis, using the pharmacokinetic evaluation program WinNOnlin [1]. AUC(0-inf.) was calculated applying the linear trapezoidal rule and extrapolation to infinity using the apparent elimination rate constant kz and the calculated concentration at the last measurable time point. AUClast values were calculated by linear trapezoidal rule from time zero to time of last measureable time point.

In the case of Cc1ccccc1-c1cc(N2CCN(C)CC2)ncc1N(C)C(=O)C(C)(C)c1cc(C(F)(F)F)cc(C(F)(F)F)c1 [Formula I, 2-(3,5-bis(trifluoromethyl)phenyl)-N,2-dimethyl-N-(6-(4-methylpiperazin-1-yl)-4-(o-tolyl)pyridin-3-yl)propanamide], the AUC(0-t) is reported as 11800 ng·h/mL.
